Experimental data as given in PMC9497102, “Thiosemicarbazone Derivatives Developed to Overcome COTI-2 Resistance” (Cancers, 2022).
Converted amounts (≈) assume the structure as drawn. Where two headings read alike, the source gives them in different places. Marks after values point to notes of the source that are not given here.

What was measured:
[1] = Iron(III) complex formation, UV-vis spectrophotometric titrations; format: physicochemical
Protocol: (§1) The UV-vis spectra were recorded using an Agilent Cary 8454 diode array spectrophotometer in the 200 to 950 nm window, and the path length was varied between 1 and 5 cm, depending on the solubility (thus the applicable concentration). For the spectrophotometric titrations, the same instruments (Metrohm 665 Dosimat burette, Orion 710A pH-meter, Metrohm combined pH glass electrode) and experimental setup (ionic strength: 0.10 M (KCl); titrant: 0.10 M carbonate-free KOH solution in 30% (v/v) DMSO/H2O; samples: prepared in 30% (v/v) DMSO/H2O; calibration: method of Irving et al.; pH range: 1.0 to 13.5; and sample volume: 10 cm^3) were used as in our previous work. Argon overpressure was used for the Fe(II)-containing samples when the Fe(II) stock solution was added to the samples in tightly closed titration vessels, which were previously completely deoxygenated (for 20 min). Measurements were taken with ligands (10–80 μM, depending on solubility) in the presence of 1, 0.5, and 0.3 equiv. of Cu(II), Fe(II), and Fe(III) ions. Equilibrium constants, such as the proton dissociation constants (pKa) of the ligands, the overall stability constants (logβ) of the metal complexes, and the UV-vis spectra of the individual ligand or complex species were computed using the program PSEQUAD [18], as was the case in our previous works.

[2] = system: SW480/Tria cells; set-up: method as in PMID 33190481; details: cited from earlier work; for IC50: 72 h, MTT; for Relative Resistance SW480/Tria: IC50 of resistant subline divided by IC50 of parental SW480
[3] = system: GLC-4/adr cells (ABCC1-overexpressing); set-up: method as in PMID 33190481; details: cited from earlier work; for IC50: 72 h, MTT; for Relative Resistance GLC-4/adr: IC50 of GLC-4/adr divided by IC50 of parental GLC-4
[4] = system: SW480/Coti cells; set-up: method as in PMID 33190481; details: cited from earlier work; for IC50: 72 h, MTT; for Relative Resistance SW480/Coti: IC50 of resistant subline divided by IC50 of parental SW480
[5] = Distribution coefficient, shake-flask n-octanol/buffer pH 7.4; format: physicochemical; details: n-octanol/buffered aqueous solution; n-octanol/water, pH 7.4, 25 °C; read-out: log D7.4 (meas.)
Protocol: Distribution coefficient (D7.4) values of COTI-NH2 were determined by the shake-flask method in n-octanol/buffered aqueous solution at pH 7.4 in 20 mM phosphate buffer (0.10 M KCl) at 25.0 ± 0.2 °C following a similar approach to that reported in our previous works. The other compounds and all of their Cu(II) complexes were too lipophilic to obtain experimental data. Thus, the logP values were calculated for COTI-NMeCy, COTI-Nme2, and COTI-2 (MarvinSketch,version 16.12.12.0, calculation module developed by ChemAxon (Budapest, Hungary), http://www.chemaxon.com/products/marvin/marvinsketch/ (accessed on 20 August 2022)).

[6] = Copper(II) complex formation, UV-vis titrations and EDTA competition; format: physicochemical
Protocol: as §1
The conditional stability constants (β’) of the Cu(II) complexes were calculated from competition reactions with EDTA at pH = 5.9 using MES (50 mM) when the metal:ligand ratio was 1:1 (clig = cCu between 10 and 80 μM). Individual samples were prepared in which the ligand:EDTA ratio was variable between 1:0 and 1:50. After a 3 h incubation period, UV-vis spectra were collected. The calculation of the β’ (CuL) values was performed following the same method as that in our previous work using the logβ’5.90 = 13.89 of complex [Cu(EDTA)]^2− obtained from the previously reported equilibrium constants of EDTA and its Cu(II) complex.

[7] = Parallel artificial membrane permeability assay (PAMPA); format: in vitro ADME; details: pH 7.4, 25 °C, read-out: Peff
Protocol: (§2) The thermodynamic solubility of COTI-NMeCy, COTI-Nme2, COTI-NH2, and COTI-2 was measured for the saturated solutions in water at pH 7.4 (20 mM HEPES buffer) at 25.0 ± 0.1 °C. The concentrations of the compounds were determined by UV-vis spectrophotometry using stock solutions of the compounds with known concentrations dissolved in pure DMSO, and 50% and 1% (v/v) DMSO/buffered aqueous solution for the calibration. The parallel artificial membrane permeability assay (PAMPA) was applied for the ligands with a Corning Gentest pre-coated PAMPA Plate System. Peff values were calculated according to the equation reported by Yu et al..

[8] = Cyclic voltammetry of copper(II)–ligand (1:1) systems; format: physicochemical; details: cL = cCu(II) = 1 mM, pH 7.40, 25 °C, 90% (v/v) DMSO/H2O, 0.01 V/s scan rate
Protocol: (§3) Cyclic voltammograms for the Fe(III) and Cu(II) complexes were recorded in 90% (v/v) DMSO/water solution containing 1 mM ligand and 0.5 mM FeCl3 or 1 mM CuCl2 using a conventional three-electrode system under nitrogen atmosphere and a PC-Controlled Electrochemical Measurement System (EF 451). The ionic strength was 0.10 M, adjusted by TBAN. Samples were purged for 15 min with Ar before recording the cyclic voltammograms. Platinum electrodes were used as the working and auxiliary electrodes, and Ag/AgCl (3 M KCl) was applied as the reference electrode. The electrochemical potentials were converted into the normal hydrogen electrode (NHE) scale by adding 0.222 V. The instrument was calibrated with an aqueous solution of K3[Fe(CN)6] (E1/2 = +0.386 V vs. NHE). Redox potentials were obtained at different scan rates (5–25 mV/s) in the range of −0.8 to +0.1 V. The dependence of the peak current values of the square root of the scan rates is shown in Figure S5 for the iron and copper complexes of COTI-NMeCy.

[9] = Thermodynamic solubility in water at pH 7.4 (UV-vis); format: physicochemical; details: water at pH 7.4 (20 mM HEPES buffer), aqueous buffer, thermodynamic from solid, water pH 7.4 (20 mM HEPES), 25 °C, read-out: S (meas.)
Protocol: as §2

[10] = pKa by UV-vis spectrophotometric titrations; format: physicochemical; details: 30% (v/v) DMSO/H2O solution, I = 0.1 M (KCl), 25 °C
Protocol: as §1

[11] = set-up: method as in PMID 33190481; details: after formation of mixed-ligand GSH adduct; cited from earlier work
[12] = system: GLC-4 cells; set-up: method as in PMID 33190481; details: 72 h, MTT; cited from earlier work
[13] = Iron(II) complex formation, UV-vis spectrophotometric titrations (anaerobic); format: physicochemical
Protocol: as §1

[14] = Zinc(II) complex formation, UV-vis spectrophotometric titrations; format: physicochemical
[15] = system: SW480 cells; set-up: method as in PMID 33190481; details: 72 h, MTT; cited from earlier work
[16] = set-up: method as in PMID 21523301; details: cited from earlier work
[17] = set-up: method as in doi:10.1002/ejic.201200360; details: cited from earlier work
[18] = set-up: method as in doi:10.1002/ejic.200901174; details: cited from earlier work
[19] = Cyclic voltammetry of iron(III)–ligand (1:2) systems; format: physicochemical; details: cL = 1 mM, pH 7.40, 25 °C, 90% (v/v) DMSO/H2O, 0.01 V/s scan rate
Protocol: as §3

[20] = T = 25.0 °C, I = 0.10 M (KCl), 30% (v/v) DMSO/H2O
[21] = calculated at cM = 1 μM, cL = 10 μM, pH = 7.40

## NC(=S)N/N=C1\CCCc2cccnc21 [COTI-NH2]
[1]; Fe(III) hydroxido species also considered as unbound metal, cFe = 1 μM, cL = 10 μM, pH = 7.40
  pFe(III)*: 10.4
[1]; [20]
  logβ [Fe(III)L2]^+: 32.29 ± 0.08
  logβ [Fe(III)L]^2+: 20.00 ± 0.09
[1]; –log[free Fe(III)] calculated at cFe = 1 μM, cL = 10 μM, pH = 7.40
  pFe(III): 18.5
[2]
  IC50: > 20 µM
  Relative Resistance SW480/Tria: >2.5
[3]
  IC50: 3.65 ± 0.41 µM
  Relative Resistance GLC-4/adr: 1.0 ^n.s.
[4]
  IC50: 4.39 ± 0.56 µM
  Relative Resistance SW480/Coti: 0.6 ***
[5]
  logD: 1.64
[6]; [21]
  pCu: 13.1
[6]; conditional stability constant, EDTA competition at pH = 5.90
  logβ5.9′ [CuL]^+: 10.59 ± 0.08
[6]; β = β’ × αH, [H+] = 10^–5.90 M
  logβ [CuL]^+: 16.92
[7]
  Papp: 67 ± 7 nm/s
[8]
  E′ vs. NHE, copper(II)–ligand (1:1) systems: -0.17 V
[9]
  solubility thermodynamic: 737 µM (≈ 162 µg/mL)
[10]; read-out: pKa (H2L)
  pKa: 4.39 ± 0.01
[10]; read-out: pKa (HL)
  pKa: 12.22 ± 0.01
[11]
  redox reaction of the copper(II) complex with GSH: relatively slow redox reaction took place
[12]
  IC50: 3.64 ± 0.39 µM
[13]; [20]
  logβ [Fe(II)L2]: 31.21 ± 0.09
  logβ [Fe(II)L]^+: 17.36 ± 0.06
[13]; –log[free Fe(II)] calculated at cFe = 1 μM, cL = 10 μM, pH = 7.40
  pFe(II): 17.4
[14]; [20]
  logβ [ZnL2]: 25.42 ± 0.04
  logβ [ZnL]^+: 14.07 ± 0.04
[14]; [21]
  pZn: 11.6
[15]
  IC50: 7.85 ± 0.92 µM

## NC(=S)NN=Cc1ncccc1N [Triapine, 3-aminopyridine-2-carboxaldehyde thiosemicarbazone]
[2]
  IC50: > 50 µM
  Relative Resistance SW480/Tria: >61
[3]
  IC50: 0.57 ± 0.05 µM
  Relative Resistance GLC-4/adr: 0.9 ^n.s.
[4]
  IC50: 0.81 ± 0.08 µM
  Relative Resistance SW480/Coti: 1.0 ^n.s.
[8]
  E′ vs. NHE, copper(II)–ligand (1:1) systems: -0.13 V
[16]
  E′ of the iron complex: +0.07 V
[17]
  logD7.4: +0.85
[18]
  logβ [CuL]^+: 13.9
[12]
  IC50: 0.65 ± 0.09 µM
[15]
  IC50: 0.82 ± 0.18 µM
[19]
  E’ vs. NHE, iron(III)–ligand (1:2) systems: +0.03 V
